Laboratory results taken from patent publication US20240173440A1, “HIGH PURITY COPPER RADIOPHARMACEUTICAL COMPOSITIONS AND DIAGNOSTIC AND THERAPEUTIC USES THEREOF” (Nuclidium AG, priority 2022, published 2024).

Columns and labels:
[1] = molecular target: hFAP (Homo sapiens (Human), UniProt Q12884); experiment: Saturation binding on isolated HEK-293.hFAP cell membranes; design: Bmax: unit not given here; conditions: 37° C.
Experimental: The cells were homogenized using Ultra-Turrax, and the homogenized suspension was centrifuged at 500×g for 10 min at 4° C. The supernatant was collected in centrifuge tubes (Beckman Coulter Inc., Brea, CA, USA). This procedure was then repeated 5 times. The collected supernatant was centrifuged in an ultra-centrifuge (Beckman) at 4° C. for 55 min at 49,000×g. Then, the pellet was re-suspended in 10 mM ice-cold HEPES buffer (pH 7.5), aliquoted, and stored at −80° C. The protein concentration of those membrane suspensions was determined by the Bradford method, BSA as the standard.
Each assay tube contained 170 μL of binding buffer (20 mM HEPES, pH 7.4, containing 4 mM μgCl2, 0.2% BSA, 20 μg/L bacitracin, 20 μg/L PMSF and 200,000 KIU/L aprotinin). The incubation was initiated by adding 30 μL of radioligand solution at 10 times the final concentration and 100 μL of cell membrane suspension to yield 10 μg of protein per well. For the determination of the non-specific binding, 140 μL of the above binding buffer was added along with 30 μL of FAPI-46 to obtain (0.1 mM). Bound fractions were plotted versus the corresponding radioligand concentration at equilibrium. The dissociation constant (KD) and maximal binding capacity (Bmax) values were calculated using GraphPad Software Inc., Prism 7, San Diego, CA, USA (Table 33 and FIG. 21).

[2] = system: HT-1080.hFAP and HT-1080.wt xenografts; experiment: Quantitative biodistribution in HT-1080.hFAP and HT-1080.wt xenografted mice; type: in vivo; conditions: for Biodistribution HT-1080.wt: FAP-negative tumor; for Biodistribution HT-1080.hFAP: FAP-positive tumor
Experimental: The tumors were allowed to grow to an average volume of 100-200 mm3.
Biodistribution Studies: The xenografted mice were randomized (n=5 per group) and injected intravenously via the tail vein with the ^61Cu-labeled radioligands (100 μL, […], 0.8-1MBq). Mice were euthanized 1h and 4h pi. by CO2 asphyxiation. Organs of interest and blood were collected, rinsed of excess blood, blotted dry, weighed, and counted in a […]. The samples were counted against a suitably diluted aliquot of the injected solution as the standard and the results are expressed as the percentage of the injected activity per gram of tissue (0% I.A./g)+SD.

[3] = system: LNCaP xenografts; experiment: Quantitative biodistribution in LNCaP xenografted mice; type: in vivo; conditions: for Biodistribution Adrenal / Biodistribution Blood / Biodistribution Bone / Biodistribution Heart / Biodistribution Intestine / Biodistribution Kidney / Biodistribution LNCaP-tumor / Biodistribution Liver / Biodistribution Lung / Biodistribution Muscle / Biodistribution Pancreas / Biodistribution Salivary gland / Biodistribution Spleen / Biodistribution Stomach / Ratio Tumor/Blood / Ratio Tumor/Kidney / Ratio Tumor/Liver / Ratio Tumor/Muscles: LNCap xenograft mice
[4] = Lipophilicity, log D by shake-flask method (1-octanol/PBS pH 7.4); type: physicochemical; conditions: shake-flask, Table 17, mean ± SD
Experimental: The radiotracer (1 μM) was added to a 50:50 pre-saturated mixture of 1-octanol and phosphate buffered saline (PBSpH 7.4). The solution was vortexed for 30 min and then centrifuged at 3,000 rpm to achieve a phase separation. Aliquots from each phase were collected and measured in a gamma-counter. The distribution coefficient was calculated as the average of the logarithmic values of the ratio between the radioactivity in the organic and the PBS phase.
Table 17. Lipophilicity expressed as the log distribution coefficient D (log D(Octanol/PBS pH7.4)) of ^61Cu-radiotracers versus ^68Ga-radiotracers (reference radiotracers).
In a pre-lubricated Eppendorf tube, a pre-saturated mixture of 500 μL of 1-octanol and 500 μL of PBS pH 7.4 (phosphate-buffered saline) were added. An aliquot of […] in 10 μL of the radioligand was added to this mixture, shaken for 30 min, and then centrifuged at 3000 rcf for 10 min to achieve phase separation. Aliquots of 100 μL were removed from the 1-octanol and from the PBS phases, and the activity was measured in a […]. The partition coefficient was calculated as the average log ratio value of the radioactivity in the organic fraction and PBS fraction.

[5] = 1 h p.i., HT-1080.hFAP and HT-1080.wt xenografts
[6] = 4 h p.i., HT-1080.hFAP and HT-1080.wt xenografts

Sequence of hFAP (Q12884 whole entry): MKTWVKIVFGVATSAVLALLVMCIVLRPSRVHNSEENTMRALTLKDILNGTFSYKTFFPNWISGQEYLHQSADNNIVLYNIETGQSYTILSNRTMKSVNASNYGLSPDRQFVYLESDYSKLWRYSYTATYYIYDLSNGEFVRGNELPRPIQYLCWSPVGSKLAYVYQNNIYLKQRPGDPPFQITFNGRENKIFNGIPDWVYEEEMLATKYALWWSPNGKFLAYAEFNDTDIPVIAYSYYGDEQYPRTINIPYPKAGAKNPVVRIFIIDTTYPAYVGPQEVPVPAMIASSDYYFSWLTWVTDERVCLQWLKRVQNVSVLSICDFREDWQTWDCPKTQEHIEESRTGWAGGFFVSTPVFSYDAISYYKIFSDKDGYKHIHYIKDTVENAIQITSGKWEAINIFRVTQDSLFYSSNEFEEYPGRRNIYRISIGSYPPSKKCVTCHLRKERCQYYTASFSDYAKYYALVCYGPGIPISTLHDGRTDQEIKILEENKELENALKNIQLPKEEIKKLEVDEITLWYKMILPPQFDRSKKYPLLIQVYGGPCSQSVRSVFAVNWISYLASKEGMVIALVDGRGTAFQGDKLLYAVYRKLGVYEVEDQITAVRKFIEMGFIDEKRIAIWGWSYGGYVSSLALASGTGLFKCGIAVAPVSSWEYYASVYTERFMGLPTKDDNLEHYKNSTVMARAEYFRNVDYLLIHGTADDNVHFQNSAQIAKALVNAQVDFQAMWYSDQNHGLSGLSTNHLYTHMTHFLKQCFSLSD

Compound: CN(C(=O)CCC(=O)NCCNC(=O)CC[C@H](C(=O)O)N1CCN2CCN(CC1)CC(=O)[O][61Cu][O]C(=O)C2)c1ccc2nccc(C(=O)NCC(=O)N3CC(F)(F)C[C@H]3C#N)c2c1 [[^61Cu]Cu-NODAGA-F2]
- Bmax [1]: 7.7-8.4
- Biodistribution Heart ([2]; 1 hour p.i.): 0.6 ± 0.1 % I.A./g
- Biodistribution Intestine ([2]; 1 hour p.i.): 0.5 ± 0.1 % I.A./g
- Biodistribution Liver ([2]; 1 hour p.i.): 0.6 ± 0.1 % I.A./g
- Biodistribution Lung ([2]; 1 hour p.i.): 0.8 ± 0.1 % I.A./g
- Biodistribution Muscle ([2]; 1 hour p.i.): 0.9 ± 0.1 % I.A./g
- Biodistribution Spleen ([2]; 1 hour p.i.): 0.4 ± 0.1 % I.A./g
- Biodistribution Stomach ([2]; 1 hour p.i.): 0.6 ± 0.1 % I.A./g
- Biodistribution Adrenal [2, 5]: 1.5 ± 0.3 % IA/g
- Biodistribution Blood [2, 5]: 1.2 ± 0.1 % IA/g
- Biodistribution Femur [2, 5]: 2.4 ± 0.3 % IA/g
- Biodistribution HT1080.hFAP (FAP-positive tumor) [2, 5]: 3.5 ± 1.0 % IA/g
- Biodistribution HT1080.wt (FAP-negative tumor) [2, 5]: 1.4 ± 0.2 % IA/g
- Biodistribution Heart [2, 5]: 0.6 ± 0.1 % IA/g
- Biodistribution Intestine [2, 5]: 0.5 ± 0.1 % IA/g
- Biodistribution Kidney [2, 5]: 1.1 ± 0.1 % IA/g
- Biodistribution Liver [2, 5]: 0.6 ± 0.1 % IA/g
- Biodistribution Lung [2, 5]: 0.8 ± 0.1 % IA/g
- Biodistribution Muscle [2, 5]: 0.9 ± 0.1 % IA/g
- Biodistribution Pancreas [2, 5]: 1.1 ± 0.2 % IA/g
- Biodistribution Spleen [2, 5]: 0.4 ± 0.1 % IA/g
- Biodistribution Stomach [2, 5]: 0.6 ± 0.1 % IA/g
- Biodistribution Adrenal ([2]; 4 hours p.i.): 0.3 ± 0.1 % I.A./g
- Biodistribution Blood ([2]; 4 hours p.i.): 0.5 ± 0.1 % I.A./g
- Biodistribution Heart ([2]; 4 hours p.i.): 0.3 ± 0.0 % I.A./g
- Biodistribution Intestine ([2]; 4 hours p.i.): 0.3 ± 0.1 % I.A./g
- Biodistribution Kidneys ([2]; 4 hours p.i.): 1.0 ± 0.1 % I.A./g
- Biodistribution Liver ([2]; 4 hours p.i.): 0.6 ± 0.1 % I.A./g
- Biodistribution Lung ([2]; 4 hours p.i.): 0.4 ± 0.0 % I.A./g
- Biodistribution Muscle ([2]; 4 hours p.i.): 0.4 ± 0.1 % I.A./g
- Biodistribution Pancreas ([2]; 4 hours p.i.): 0.5 ± 0.0 % I.A./g
- Biodistribution Spleen ([2]; 4 hours p.i.): 0.2 ± 0.0 % I.A./g
- Biodistribution Stomach ([2]; 4 hours p.i.): 0.3 ± 0.1 % I.A./g
- Biodistribution Adrenal [2, 6]: 0.3 ± 0.1 % IA/g
- Biodistribution Blood [2, 6]: 0.5 ± 0.1 % IA/g
- Biodistribution Femur [2, 6]: 1.6 ± 0.3 % IA/g
- Biodistribution HT1080.hFAP (FAP-positive tumor) [2, 6]: 4.0 ± 0.6 % IA/g
- Biodistribution HT1080.wt (FAP-negative tumor) [2, 6]: 0.9 ± 0.1 % IA/g
- Biodistribution Heart [2, 6]: 0.3 ± 0.0 % IA/g
- Biodistribution Intestine [2, 6]: 0.3 ± 0.1 % IA/g
- Biodistribution Kidney [2, 6]: 1.0 ± 0.1 % IA/g
- Biodistribution Liver [2, 6]: 0.6 ± 0.1 % IA/g
- Biodistribution Lung [2, 6]: 0.4 ± 0.0 % IA/g
- Biodistribution Muscle [2, 6]: 0.4 ± 0.1 % IA/g
- Biodistribution Pancreas [2, 6]: 0.5 ± 0.0 % IA/g
- Biodistribution Spleen [2, 6]: 0.2 ± 0.0 % IA/g
- Biodistribution Stomach [2, 6]: 0.3 ± 0.1 % IA/g
- Biodistribution HT-1080.wt ([2]; 1 hour p.i.): 1.4 ± 0.2 % I.A./g
- Biodistribution HT-1080.wt ([2]; 4 hours p.i.): 0.9 ± 0.1 % I.A./g
- Biodistribution HT-1080.hFAP ([2]; 1 hour p.i.): 3.5 ± 1.0 % I.A./g
- Biodistribution HT-1080.hFAP ([2]; 4 hours p.i.): 4.0 ± 0.6 % I.A./g
- accumulation in tumor and target-positive tissues ([2]; HT-1080.hFAP and HT-1080.wt xenografts): high accumulation in FAP-positive (HT-1080.hFAP) tumor and murine-FAP-positive tissues

Compound: CN(C(=O)CCC(=O)N1CCN(C(=O)CC[C@H](C(=O)O)N2CCN3CCN(CC2)CC(=O)[O][Cu][O]C(=O)C3)CC1)c1ccc2nccc(C(=O)NCC(=O)N3CC(F)(F)C[C@H]3C#N)c2c1 [[^61Cu]Cu-NODAGA-F4]
- Kd [1]: 3 to 3.9 nM

Compound: O=C(O)CC[C@H](NC(=O)N[C@@H](CCCCNC(=O)[C@H](Cc1ccc2ccccc2c1)NC(=O)c1ccc(CNC(=O)[C@H](CCC(=O)O)NC(=O)[C@H](CCC(=O)O)NC(=O)c2ccc([18F])nc2)cc1)C(=O)O)C(=O)O [[^18F]PSMA-1007]
- tumor uptake ([3]; 4h p.i., LNCaP xenograft mice, comparison with reference radiotracer, p=0.0145): 6.28±2.19 % IA/g
- Biodistribution Adrenal ([3]; 1 h after injection): 7.18 ± 2.20 % IA/g
- Biodistribution Blood ([3]; 1 h after injection): 0.41 ± 0.11 % IA/g
- Biodistribution Bone ([3]; 1 h after injection): 0.94 ± 0.13 % IA/g
- Biodistribution Heart ([3]; 1 h after injection): 1.25 ± 0.29 % IA/g
- Biodistribution Intestine ([3]; 1 h after injection): 1.04 ± 0.33 % IA/g
- Biodistribution Kidney ([3]; 1 h after injection): 100 ± 17 % IA/g
- Biodistribution LNCaP-tumor ([3]; 1 h after injection): 9.70 ± 2.57 % IA/g
- Biodistribution Liver ([3]; 1 h after injection): 0.93 ± 0.26 % IA/g
- Biodistribution Lung ([3]; 1 h after injection): 2.08 ± 0.24 % IA/g
- Biodistribution Muscle ([3]; 1 h after injection): 0.53 ± 0.09 % IA/g
- Biodistribution Pancreas ([3]; 1 h after injection): 1.32 ± 0.58 % IA/g
- Biodistribution Salivary gland ([3]; 1 h after injection): 2.54 ± 0.72 % IA/g
- Biodistribution Spleen ([3]; 1 h after injection): 11.0 ± 1.1 % IA/g
- Biodistribution Stomach ([3]; 1 h after injection): 0.75 ± 0.15 % IA/g
- Ratio Tumor/Blood ([3]; 1 h after injection): 25.8 ± 11.5
- Ratio Tumor/Kidney ([3]; 1 h after injection): 0.10 ± 0.03
- Ratio Tumor/Liver ([3]; 1 h after injection): 11.3 ± 4.5
- Ratio Tumor/Muscles ([3]; 1 h after injection): 19.2 ± 6.5
- Biodistribution Adrenal ([3]; 4 h after injection): 8.03 ± 2.66 % IA/g
- Biodistribution Blood ([3]; 4 h after injection): 0.17 ± 0.04 % IA/g
- Biodistribution Bone ([3]; 4 h after injection): 0.62 ± 0.11 % IA/g
- Biodistribution Heart ([3]; 4 h after injection): 0.53 ± 0.23 % IA/g
- Biodistribution Intestine ([3]; 4 h after injection): 0.43 ± 0.22 % IA/g
- Biodistribution Kidney ([3]; 4 h after injection): 132 ± 9 % IA/g
- Biodistribution LNCaP-tumor ([3]; 4 h after injection): 6.28 ± 2.19 % IA/g
- Biodistribution Liver ([3]; 4 h after injection): 0.32 ± 0.16 % IA/g
- Biodistribution Lung ([3]; 4 h after injection): 1.61 ± 0.58 % IA/g
- Biodistribution Muscle ([3]; 4 h after injection): 0.27 ± 0.11 % IA/g
- Biodistribution Pancreas ([3]; 4 h after injection): 0.80 ± 0.32 % IA/g
- Biodistribution Salivary gland ([3]; 4 h after injection): 1.62 ± 0.43 % IA/g
- Biodistribution Spleen ([3]; 4 h after injection): 8.33 ± 2.11 % IA/g
- Biodistribution Stomach ([3]; 4 h after injection): 0.47 ± 0.16 % IA/g
- Ratio Tumor/Blood ([3]; 4 h after injection): 42.7 ± 16.4
- Ratio Tumor/Kidney ([3]; 4 h after injection): 0.04 ± 0.01
- Ratio Tumor/Liver ([3]; 4 h after injection): 18.4 ± 8.5
- Ratio Tumor/Muscles ([3]; 4 h after injection): 20.1 ± 2.5
- log D(O/PBS pH 7.4) [4]: −3.02 ± 0.11
